One assay concerns the target V1a (Homo sapiens, UniProt P37288). Kind of assay: In-vitro receptor binding assay (3H-arginine-8-vasopressin), V1a. As to conditions: for inhibition at 0.1 µM / inhibition at 1 µM / inhibition at 0.125 µM: read-out: Receptor Binding V1a (% Inh. @ concentration in μM). An outline of the steps: (§1)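 Radioligand is 3H-arginine-8-vasopressin, incubated with receptor for one hour at room temperature, then filtered on GF/C plates and counted by scintillation. Non-specific binding was defined with 1.25 μM vasopressin, and results are given as % inhibition.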

The next assay concerns the target human V2 receptor (Homo sapiens, UniProt P30518). Kind of assay: In-vitro receptor binding assay (3H-arginine-8-vasopressin), V2. The settings on record: for inhibition at 0.25 µM / inhibition at 0.225 µM / inhibition at 1 µM / inhibition at 0.1 µM: read-out: Receptor Binding V2 (% Inh. @ concentration in μM); for inhibition at 1 µM / Receptor Binding V2 (% Inh. @ concentration in μM): @ 1 μM. A digest of the protocol:
as §1

What is called IC50 is the point on the concentration scale where inhibition reaches its midpoint. Read a low IC50 as higher potency.

SMILES strings stand for the structures.

human V2 receptor, sequence (P30518 whole entry): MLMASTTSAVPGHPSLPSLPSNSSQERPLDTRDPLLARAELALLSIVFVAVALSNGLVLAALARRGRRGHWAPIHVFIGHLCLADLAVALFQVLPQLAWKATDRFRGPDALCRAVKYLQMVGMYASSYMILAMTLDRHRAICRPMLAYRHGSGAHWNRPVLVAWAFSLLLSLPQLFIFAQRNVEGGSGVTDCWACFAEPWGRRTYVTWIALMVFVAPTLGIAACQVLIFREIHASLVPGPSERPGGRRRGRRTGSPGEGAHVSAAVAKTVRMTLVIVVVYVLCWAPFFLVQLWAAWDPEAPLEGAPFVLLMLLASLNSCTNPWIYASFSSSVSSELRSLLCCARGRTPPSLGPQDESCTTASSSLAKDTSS
V1a, sequence (P37288 whole entry): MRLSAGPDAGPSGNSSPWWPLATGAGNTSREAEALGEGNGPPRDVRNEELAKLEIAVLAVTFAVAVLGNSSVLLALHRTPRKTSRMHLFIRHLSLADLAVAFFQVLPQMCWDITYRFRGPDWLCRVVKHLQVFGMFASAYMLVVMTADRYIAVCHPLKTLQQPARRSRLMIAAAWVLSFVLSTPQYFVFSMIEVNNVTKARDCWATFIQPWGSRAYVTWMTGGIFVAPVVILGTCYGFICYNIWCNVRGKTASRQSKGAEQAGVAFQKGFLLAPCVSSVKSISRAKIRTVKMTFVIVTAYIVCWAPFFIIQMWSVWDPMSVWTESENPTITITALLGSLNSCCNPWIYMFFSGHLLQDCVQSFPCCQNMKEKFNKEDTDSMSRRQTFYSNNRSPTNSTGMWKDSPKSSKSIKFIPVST

As for `Cc1ccc(F)cc1C(=O)Nc1ccc(C(=O)N2CCC3(C=C(C(=O)NCCN4CCCCC4)CC3)Cc3ccccc32)cc1` (stereo not drawn) [Compound 160], the concentration for half-maximal inhibition (IC50) on V1a was 0.011 µM; on human V2 receptor, 0.082 µM.
For `Cc1ccc(F)cc1C(=O)Nc1ccc(C(=O)N2CCC3(C=C(C(=O)NCCN4CCCC4)CC3)Cc3ccccc32)cc1` (stereo not drawn) [Compound 161] the same measures were 0.01 µM and 0.072 µM.
As to `CCOC(=O)C1=CC2(CC1)CCN(C(=O)c1ccc(NC(=O)c3ccccc3C)cc1)c1ccccc1C2` (stereo not drawn) [Compound 162], the IC50 at V1a came out at 0.069 µM. Further, the inhibition at 0.25 µM at human V2 receptor turned out to be 42%.
For `O=C(c1ccc(-n2ccc(CO)c2)cc1Cl)N1CCC2(C=CCCC2)Cc2ccccc21` (stereo not drawn) [Compound 164] the same measures were 0.114 µM and 20%.
For `COc1cc(-n2ccc(CO)c2)ccc1C(=O)N1CCC2(C=CCCC2)Cc2ccccc21` (stereo not drawn) [Compound 165] the same measures were 0.042 µM and 25%.
At V1a, `COc1cc(-n2ccc(C=O)c2)ccc1C(=O)N1CCC2(C=CCCC2)Cc2ccccc21` (stereo not drawn) [Compound 166] displayed an IC50 of 0.114 µM. For the same molecule, the inhibition at 0.225 µM at human V2 receptor is 5%.
For `COc1cc(C(=O)N2CCC3(C=CCCC3)Cc3ccccc32)ccc1-n1ccc(C=O)c1` (stereo not drawn) [Compound 167, 4-(3-Methoxy-4-(pyrrol-1-yl-3-carboxaldehyde)benzoyl)-4-aza-[6,5]-spiro-[5,6]-benzododec-2′-ene] the same measures were 0.06 µM and 19%.
Turning to `CC(=O)N1CCC(Oc2ccc(C(=O)N3CCC4(C=CCCC4)Cc4ccccc43)cc2F)CC1` (stereo not drawn) [Compound 168, 4-(3-Fluoro-4-(N-acetylpiperidin-4-yloxy)benzoyl)-4-aza-[6,5]-spiro-[5,6]-benzododec-2′-ene], at V1a, the inhibition at 0.1 µM was determined as 50%. For the same molecule, the inhibition at 1 µM on human V2 receptor came to 0%.
On the same counts, the results for `COC(=O)CN1CCC(Oc2ccc(C(=O)N3CCC4(C=CCCC4)Cc4ccccc43)cc2F)CC1` (stereo not drawn) [Compound 169] are 4% and 0%.
In the case of `COc1cc(NC(=O)c2cc(F)ccc2C)ccc1C(=O)N1CCC2(C=C(C=O)CC2)Cc2ccccc21` (stereo not drawn) [Compound 170], the IC50 at V1a was found to be 0.055 µM; at human V2 receptor, 0.21 µM.
Turning to `CCCCN1CCC(Oc2ccc(C(=O)N3CCC4(C=CCCC4)Cc4ccccc43)cc2F)CC1` (stereo not drawn) [Compound 171], the inhibition at 0.1 µM on V1a came out at 24%. Also, the inhibition at 1 µM at human V2 receptor worked out at 65%.
On the same counts, the results for `CC(=O)Oc1ccc(C(=O)N2CCC3(C=CCCC3)Cc3ccccc32)cc1` (stereo not drawn) [Compound 172] are 15% and 0%.
For `CC(C)CCN1CCC(Oc2ccc(C(=O)N3CCC4(C=CCCC4)Cc4ccccc43)cc2F)CC1` (stereo not drawn) [Compound 173] the same measures were 0% and 0%.
Take `CCCCC(=O)N1CCC(Oc2ccc(C(=O)N3CCC4(C=CCCC4)Cc4ccccc43)cc2F)CC1` (stereo not drawn) [Compound 174]: the inhibition at 0.1 µM on V1a came to 0%. In addition, on human V2 receptor, the inhibition at 1 µM is 8%.
In the case of `COc1cc(NC(=O)c2cc(F)ccc2C)ccc1C(=O)N1CCC2(C=C(C(=O)O)CC2)Cc2ccccc21` (stereo not drawn) [Compound 175], the inhibition at 0.1 µM on V1a came out at 15%. This molecule also displayed an IC50 at human V2 receptor of 0.11 µM.
Take `CC(=O)c1ccn(-c2ccc(C(=O)N3CCC4(C=CCCC4)Cc4ccccc43)cc2F)c1` (stereo not drawn) [Compound 177]: the IC50 on V1a is 0.044 µM. Besides, at human V2 receptor, the inhibition at 1 µM came to 30%.
On the same counts, the results for `COc1cc(C(=O)N2CCC3(C=CCCC3)Cc3ccccc32)ccc1-n1ccc(CO)c1` (stereo not drawn) [Compound 178, 4-[3-Methoxy-4-(3-hydroxymethylpyrrol-1-yl)benzoyl]-4-aza-[6,5]-spiro-[5,6]benzododec-2′-ene] are 0.013 µM and 53%.
With `CC(C)CCOc1ccc(C(=O)N2CCC3(C=CCCC3)Cc3ccccc32)cc1` (stereo not drawn) [Compound 179], at V1a, the half-maximal inhibitory concentration (IC50) was found to be 0.096 µM. For the same molecule, the inhibition at 1 µM on human V2 receptor was determined as 15%.
On the same counts, the results for `O=C(c1ccc(OC2CCCC2)cc1)N1CCC2(C=CCCC2)Cc2ccccc21` (stereo not drawn) [Compound 180] are 0.088 µM and 20%.
For `O=C(c1ccc(OCC2CC2)cc1)N1CCC2(C=CCCC2)Cc2ccccc21` (stereo not drawn) [Compound 181] the same measures were 0.066 µM and 31%.
As to `COc1cc(C(=O)N2CCC3(C=CCCC3)Cc3ccccc32)ccc1NC(=O)c1cc(F)ccc1C` (stereo not drawn) [Compound 182], the results for the concentration for half-maximal inhibition (IC50) at V1a and at human V2 receptor were 0.062 µM and 0.228 µM, respectively.
In turn, `O=C(c1ccc(OCC2CCCCC2)cc1)N1CCC2(C=CCCC2)Cc2ccccc21` (stereo not drawn) [Compound 183] returned an IC50 on V1a of 0.25 µM. Further, the inhibition at 1 µM at human V2 receptor came out at 18%.
On the same counts, the results for `O=C(c1ccc(OCc2ccccc2)cc1)N1CCC2(C=CCCC2)Cc2ccccc21` (stereo not drawn) [Compound 184] are 0.086 µM and 34%.
Turning to `O=C(c1ccc(OC2CCCCC2)cc1)N1CCC2(C=CCCC2)Cc2ccccc21` (stereo not drawn) [Compound 185], on V1a, the half-maximal inhibitory concentration (IC50) stood at 0.23 µM. Besides, the inhibition at 1 µM on human V2 receptor is 42%.
On to `COc1cc(C(=O)N2CCC3(C=C(C(=O)NCCN(C)C)CC3)Cc3ccccc32)ccc1[N+](=O)[O-]` (stereo not drawn) [Compound 186, 4-(3-Methoxy-4-nitrobenzoyl)-4-aza-3′-[2-(N,N-dimethylamino)ethylcarboxamido]-[6,4]-spiro-[5,6]benzoundec-2′-ene], for which the figures for the inhibition at 1 µM on V1a and at human V2 receptor were 48% and 11%, respectively.
For `COc1cc(C(=O)N2CCC3(C=C(C(=O)NCCN(C)C)CC3)Cc3ccccc32)ccc1N` (stereo not drawn) [Compound 187, 4-(4-Amino-3-methoxybenzoyl)-4-aza-3′-[2-(N,N-dimethylamino)ethylcarboxamido]-[6,4]-spiro-[5,6]-benzoundec-2′-ene] the same measures were 54% and 7%.
For `CCN(C(=O)NCCCN(C)C)C(=O)C1=CC2(CC1)CCN(C(=O)c1ccc(N)c(OC)c1)c1ccccc1C2` (stereo not drawn) [Compound 188] the same measures were 27% and 3%.
For the molecule `COc1cc(C(=O)N2CCC3(C=C(C(=O)NCCN(C)C)CC3)Cc3ccccc32)ccc1-n1ccc(C=O)c1` (stereo not drawn) [Compound 189, 4-[3-Methoxy-4-(pyrrol-1-yl-3-carboxaldehyde)benzoyl]-3′-[2-(N,N-dimethylamino)ethylcarboxamido]-4-aza-[6,4]-spiro-[5,6]-benzoundec-2′-ene], the IC50 on V1a amounted to 0.045 µM. For the same molecule, on human V2 receptor, the inhibition at 1 µM was determined as 13%.
On the same counts, the results for `COc1cc(C(=O)N2CCC3(C=C(C(=O)NCCN(C)C)CC3)Cc3ccccc32)ccc1-n1ccc(CO)c1` (stereo not drawn) [Compound 190, 4-[3-Methoxy-4-(3-hydroxymethylpyrrol-1-yl)benzoyl]-3′-[2-(N,N-dimethylamino)ethylcarboxamido]-4-aza-[6,4]-spiro-[5,6]-benzoundec-2′-ene] are 0.008 µM and 28%.
`CN(C)CCNC(=O)C1=CC2(CC1)CCN(C(=O)c1ccc(N)cc1)c1ccccc1C2` (stereo not drawn) [Compound 191] gave an IC50 on V1a of 1.2 µM. For the same molecule, the “Receptor Binding V2 (% Inh. @ concentration in μM)” value on human V2 receptor is 15% @ 1.
In turn, `CN(C)CCNC(=O)C1=C[C@@]2(CC1)CCN(C(=O)c1ccc(N)cc1)c1ccccc1C2` [Compound 192] came in with an IC50 on V1a of 5.4 µM. On human V2 receptor, the inhibition at 1 µM was determined as 0%.
`CN(C)CCNC(=O)C1=CC2(CC1)CCN(C(=O)c1ccc(N)cc1)c1ccccc1C2` (stereo not drawn) [Compound 193] displayed an IC50 at V1a of 1.1 µM. Besides, at human V2 receptor, the “Receptor Binding V2 (% Inh. @ concentration in μM)” value is recorded as 0% @ 1.
Regarding `COc1cc(N)ccc1C(=O)N1CCC2(C=C(C(=O)NCCN(C)C)CC2)Cc2ccccc21` (stereo not drawn) [Compound 194], the inhibition at 1 µM on V1a amounted to 7%; on human V2 receptor, 6%.
Consider `COc1cc(-n2ccc(C=O)c2)ccc1C(=O)N1CCC2(C=C(C(=O)NCCN(C)C)CC2)Cc2ccccc21` (stereo not drawn) [Compound 195], for which, on V1a, the IC50 came out at 0.3 µM. The inhibition at 1 µM on human V2 receptor was 18%.
On the same counts, the results for `COc1cc(-n2ccc(CO)c2)ccc1C(=O)N1CCC2(C=C(C(=O)NCCN(C)C)CC2)Cc2ccccc21` (stereo not drawn) [Compound 196] are 0.034 µM and 34%.
In the case of `COc1cc(C(=O)N2CC[C@]3(C=C(C(=O)NCCN(C)C)CC3)Cc3ccccc32)ccc1-n1ccc(CO)c1` [Compound 197], on V1a, the IC50 is 0.006 µM. Besides, the inhibition at 0.1 µM at human V2 receptor was found to be 0%.
For `COc1cc(C(=O)N2CC[C@@]3(C=C(C(=O)NCCN(C)C)CC3)Cc3ccccc32)ccc1-n1ccc(CO)c1` [Compound 198] the same measures were 0.016 µM and 0%.
`O=C(O)c1ccn(-c2ccc(C(=O)N3CCC4(C=CCCC4)Cc4ccccc43)cc2)c1` (stereo not drawn) [Compound 199]: the results for the inhibition at 0.1 µM on V1a and on human V2 receptor were 0% and 2%, respectively.
On the same counts, the results for `CN(C)CCNC(=O)C1=CC2(CC1)CCN(C(=O)c1ccc(-n3ccc(C=O)c3)cc1)c1ccccc1C2` (stereo not drawn) [Compound 201] are 44% and 0%.
For `Cc1ccn(-c2ccc(C(=O)N3CCC4(C=C(C(=O)NCCN(C)C)CC4)Cc4ccccc43)cc2)n1` (stereo not drawn) [Compound 209], the IC50 at V1a was found to be 0.055 µM. Further, the inhibition at 1 µM on human V2 receptor is 43%.
In the case of `CON(C)Cc1ccn(-c2ccc(C(=O)N3CCC4(C=C(C(=O)NCCN(C)C)CC4)Cc4ccccc43)cc2)c1` (stereo not drawn) [Compound 210], the inhibition at 0.125 µM on V1a turned out to be 6%. Besides, at human V2 receptor, the inhibition at 1 µM was determined as 22%.
On the same counts, the results for `COC(=O)C1=CC2(CC1)CCN(C(=O)c1ccc(-n3ccc(C)n3)c(N)c1)c1ccccc1C2` (stereo not drawn) [Compound 211] are 55% and 45%.

Values taken from US7691844B2, “Nonpeptide substituted spirobenzoazepines as vasopressin antagonists” (Ortho-McNeil Pharmaceutical, Inc., priority 2000, dated 2010).
